Patent US12448388B2, “PRMT5 inhibitors and uses thereof” (Gilead Sciences, Inc., priority 2023, dated 2025)
Values after ≈ are worked out from the molar mass of the structure shown. Like-named read-outs stand apart in the source and are kept apart here.

Legend:
[1] = tested on: HCT116 MTAP-deleted cell lines; experiment: Cell viability assay (CellTiter-Glo, 7 days), HCT116 MTAP-deleted; assay type: cell-based; conditions: for Selectivity: HCT116 WT CC50 versus HCT116 MTAP^del CC50; for plasma-adjusted CC50 (paCC50): paCC50 = CC50-HCT116-MTAP^del * (% free CCM/% free human plasma); for CC50: Homo sapiens, HCT116 MTAP-deleted
Procedure, shortened: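 HCT116 MTAP-deleted and wild-type cells exposed to serially diluted compound for 7 days at 37 °C, 5% CO2. Viability read by CellTiter-Glo luminescence; CC50 derived per line, with selectivity comparing WT to MTAP-deleted, limited solubility can inflate values marked *.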

[2] = Cell viability assay (CellTiter-Glo, 7 days), HCT116 WT; assay type: cell-based; conditions: human, HCT116 WT cells, 7 days of treatment, CTG
Description: Control compounds were analyzed in parallel each time for quality control. In Brief, on Day -1, a serial dilution of stock compounds in DMSO was performed using BioMek liquid handlers and dispensed using Echo acoustic dispenser into 384 well plates. Both tool compounds and sample compounds were spotted in the same plate for a dose response of PRMT5 inhibitors. Compound plates were stored as frozen until the cells were ready for seeding. […] After equilibrating the plate in room temperature, the cells were incubated for 7 days inside the sealed incubator set at 37° C. with 90% humidity and 5% CO2. On Day 7, the viability of cells was measured using a CTG assay kit (CellTitre-Glo;Promega cat no. G7573). Shortly, 40 μl per well of luminescent cell viability assay reagent were dispensed using EL460 liquid dispenser 5 μl cassette. CTG luminescence signal was measured using an EnVision plate reader (PerkinElmer) in accordance with manufacturer's instruction. […] Selectivity with * is artificially high due to limited solubility of the compound hampering accurate measurement of WT CC50.

[3] = Pharmacokinetics in cassette in male Sprague-Dawley rats for Kp measurement; assay type: in vivo; conditions: 1 mg/kg, intravenous
Description: E.1 Test Animal: Male Sprague-Dawley Rats (225-300 g) with Indwelling Bilateral Jugular Vain Cannula (JVC/JVC) or Single Jugular Vein Cannula (JVC)
E.2 Pharmaceutical Formulation and Administration
Test compound was dissolved in the vehicle of 10% DMSO, 10% ethanol, 40% polyethylene glycol 300, and 40% propylene glycol to get 1 mg/mL test compound solution. The compound was administered by intravenous administration at a dose of 1 mL/kg. Fasting was not required.
• Anticoagulant: K2EDTA • Volume: approximately 225 μL blood at each bleed • Jugula vein via syringe and needle or another method (non-terminal samples) or exsanguination (cardiac puncture) under isoflurane (or CO2 inhalation if isoflurane is unavailable) anesthesia (terminal time points). Blood samples were collected into K2EDTA tubes • Tissue collection and processing: following the terminal blood collection, the brain and CSF were collected from each animal.

[4] = MDR1/BCRP assay: permeability in cPgp-KO-MDCK-WT cells; assay type: in vitro ADME; conditions: dog, pH 7.4
Description: The cells were maintained in an incubator at 37° C., 90% humidity, and 5% CO2 until reaching confluence over 5 days in 96-well transwell plates. Experiments were conducted using an HBSS donor buffer (Invitrogen) containing 10 mM HEPES and 15 mM glucose, adjusted to pH 7.4. The receiver well contained HBSS buffer supplemented with 1% BSA, 10 mM HEPES, and 15 mM glucose, and the pH was adjusted to 7.4. TEER values were measured to assess membrane integrity after an initial equilibration with BSA-free transport buffer for 15 minutes. The experiment was started by adding dosing solutions containing test compounds at 1 μM. Cells were dosed on the apical (A) side or basolateral (B) side at 100 μl and 200 μl, respectively, to determine forward (A to B) and reverse (B to A) permeability. At the 2-hour time point, 50 μl samples were collected from the receiver compartment. Each compound was tested in 2 separate replicate wells for each condition. All samples were immediately collected into plates, and 50 μL of acetonitrile was added. Subsequently, 350 μl of 30:70 methanol: acetonitrile containing internal standard was added to precipitate proteins and stabilize the test compounds. To test for non-specific binding and compound instability, the total amount of the drug was quantified at the end of the experiment and compared to the material present in the original dosing solution as a percentage of the recovery. All samples were analyzed by LC-MS/MS using electrospray ionization.
The apparent permeability, Papp, and % recovery were calculated as follows: […]

[5] = PBS solubility (kinetic solubility from DMSO stocks); assay type: physicochemical; conditions: 22 °C, aqueous buffer, kinetic from dmso stock; 1x PBS pH 7.4, 1.0% DMSO, 24-hour incubation at ambient temperature
Description: Buffer Preparation: 1×PBS, 7.4: Phosphate Buffered Saline solution 10×, PBS (Fisher Bioreagent, part number BP399-500) 50 mL was added to approximately 450 mL HPLC grade H2O. The volume of the solution was then adjusted to 500 mL for a total dilution factor of 1:10 and a final PBS concentration of 1×. The pH of the final solution was measured and found to be 7.4.
The final DMSO Concentration is 1.0% and maximum theoretical compound concentration is 100 μM (assuming stock concentration of 10 mM). The filter plate was sealed. Following 24-hour incubation at ambient temperature (20.8-24.0° C.), the samples were vacuum filtered, and the filtrates were collected in a 96 well polypropylene plate for analysis. The collection plate was sealed for analysis. Filtrates were injected into the nitrogen detector for quantification on Analiza's Automated Discovery Workstation. The results are reported here in both μM and μg/mL.
Calculation of Results: The equimolar nitrogen response of the detector is calibrated using standards which span the dynamic range of the instrument from 0.08 to 4500 μg/ml nitrogen. The filtrates were quantified with respect to this calibration curve. The calculated solubility values are corrected for background nitrogen present in the DMSO, and the media used to prepare the samples. All reported values for compounds containing adjacent nitrogen atoms in a ring structure should be increased by ˜25%. […] The solubility results presented assume that the samples were free of nitrogen containing impurities and are stable under the assay conditions.

[6] = HCT-116, 168 h, 7 days of treatment, CTG, read-out: CC50-HCT116-MTAP^del
[7] = HCT-116, cell viability assay, class symbols, read-out: CC50
[8] = brain Kp = [brain]/[plasma], rat, read-out: Rat brain Kp
[9] = brain Kpu,u = Kp * (plasma free/rat brain free), read-out: Rat brain Kpu,u
[10] = HCT-116, cell viability, class symbols, read-out: CC50

| Compound | Selectivity [1] | plasma-adjusted CC50 (paCC50) ([1]; HCT-116) [µM] | CC50 [1, 6] [µM] | CC50 [1, 7] [µM] | CC50 at 7 days [2] [µM] | Kp [3, 8] | Kp [3, 9] | Papp A→B at 2 h, 1 µM [4] [×10⁻⁶ cm/s] | solubility at 24 h [5] [µM] | CC50 [1, 10] [µM] |
| --- | --- | --- | --- | --- | --- | --- | --- | --- | --- | --- |
| Cc1ncn2c1c(N)nc1ccc(C(=O)N3CCC[C@@H]4Oc5cc(C(F)(F)F)ccc5[C@@H]43)cc12 [Fg-31, (4-amino-3-methylimidazo[1,5-a]quinoxalin-8-yl)((4aS,9bS)-7-(trifluoromethyl)-3,4,4a,9b-tetrahydrobenzofuro[3,2-b]pyridin-1(2H)-yl)methanone] | 113 | 0.312 | 0.019 | < 0.1 | 2.14 | 0.76 | 0.13 | 10.3 | 1.6 (≈ 0.748 µg/mL) | – |
| Nc1nc2cc(F)c(C(=O)N3CCO[C@@H]4Cc5cc(OC(F)F)c(F)cc5[C@@H]43)cc2n2cncc12 [Ff-174, (4-amino-7-fluoroimidazo[1,5-a]quinoxalin-8-yl)((4aS,9aR)-7-(difluoromethoxy)-6-fluoro-2,3,9,9a-tetrahydroindeno[2,1-b][1,4]oxazin-4(4aH)-yl)methanone] | 63 | – | 0.036 | – | 2.28 | – | – | 17.8 | < 1 | < 0.1 |
| N#Cc1cc2nc(N)c3cncn3c2cc1C(=O)N1CCC[C@@H]2Oc3cc(C(F)(F)F)ccc3[C@@H]21 [Ff-346, 4-amino-8-((4aS,9bS)-7-(trifluoromethyl)-1,2,3,4,4a,9b-hexahydrobenzofuro[3,2-b]pyridine-1-carbonyl)imidazo[1,5-a]quinoxaline-7-carbonitrile] | 51 | 0.155 | 0.006 | – | 0.305 | – | – | 10.8 | 4.2 (≈ 2.01 µg/mL) | < 0.1 |
| Nc1nc2cc(Cl)c(C(=O)N3CCC[C@@H]4Oc5cc(C(F)(F)F)ccc5[C@@H]43)cc2n2cncc12 [Ff-587, (4-amino-7-chloroimidazo[1,5-a]quinoxalin-8-yl)((4aS,9bS)-7-(trifluoromethyl)-3,4,4a,9b-tetrahydrobenzofuro[3,2-b]pyridin-1(2H)-yl)methanone] | 55 | 0.329 | 0.005 | < 0.1 | 0.274 | 0.52 | 0.06 | 7.4 | < 1 | – |
| Cc1ncc2c(N)nc3cc(F)c(C(=O)N4CCC[C@@H]5Oc6nc(C(F)(F)F)ccc6[C@@H]54)cc3n12 [Ff-363, (4-amino-7-fluoro-1-methylimidazo[1,5-a]quinoxalin-8-yl)((4aS,9bS)-7-(trifluoromethyl)-3,4,4a,9b-tetrahydrofuro[2,3-b:4,5-b′]dipyridin-1(2H)-yl)methanone] | 127 | 0.196 | 0.016 | – | 2.04 | – | – | 13.4 | 21.8 (≈ 10.6 µg/mL) | < 0.1 |
| Cc1ncc2c(N)nc3cnc(C(=O)N4CC[C@H]5C[C@@H]4c4ccc(OC(F)(F)F)cc4O5)cc3n12 [Ff-698, (4-amino-1-methylimidazo[1,5-a]pyrido[3,4-e]pyrazin-8-yl)((2S,6R)-9-(trifluoromethoxy)-3,4-dihydro-2H-2,6-methanobenzo[b][1,5]oxazocin-5(6H)-yl)methanone] | 96 | 0.295 | 0.015 | – | 1.44 | – | – | 11.4 | < 1 | – |
| C[C@@H]1C[C@@H]2Oc3cc(C(F)(F)F)ccc3[C@@H]2N(C(=O)c2cc3c(cn2)nc(N)c2cncn23)C1 [Ff-252, (4-aminoimidazo[1,5-a]pyrido[3,4-e]pyrazin-8-yl)((3R,4aS,9bS)-3-methyl-7-(trifluoromethyl)-3,4,4a,9b-tetrahydrobenzofuro[3,2-b]pyridin-1(2H)-yl)methanone] | 41 | 0.269 | 0.013 | – | 0.534 | – | – | 13.6 | < 1 | < 0.1 |
